From ChEMBL document CHEMBL3507680, “University of Dundee, Gates Library screen for HepG2 cell viability”

Experiment: Human HepG2 cell viability assay in 384 well format
Type: toxicity, cell-based
Parameters: dose 125 nL, time 70.5 hour; cytotoxicity at 70.5 h: concentration not given beside the values
Conditions: HepG2 cells, read-out: Inhibition

Row | SMILES | cytotoxicity at 70.5 h
1 | N#Cc1cc(C#N)c(SCC(=O)NCc2ccc(F)cc2)nc1N | 27.8%
2 | Cc1[nH]ccc1C(=O)N[C@H]1CN(CCO)C[C@@H]1C1CC1 | -6.42%
3 | CC(=O)c1ccccc1-c1cc(C(=O)O)cc(S(=O)(=O)NC(C)C)c1 | -14.9%
4 | CNC(=O)NC(=O)C(NCc1ccccc1)c1ccccc1 (configuration not stated) | 17.9%
5 | CCOc1ncccc1C(=O)N(C)Cc1ncc(C)c(OC)c1C | -2.95%
6 | O=C(NC1(C(=O)O)CCCCC1)C1Cc2ccccc2O1 (configuration not stated) | -3.59%
7 | O=C1CC2(CCN(Cc3ccc(Cl)s3)C2)C(=O)N1 (configuration not stated) | -9.8%
8 | Cc1noc(C[C@@H]2COC[C@H]3CN(C(=O)C4=CCCC4)C[C@@H]23)n1 | -13.5%
9 | CCCn1nccc1C(=O)N1CCN(C(=O)C2CC2)[C@@H]2CS(=O)(=O)C[C@@H]21 | 11.1%
10 | Cc1sc(CN)nc1-c1ccc(Cl)cc1Cl | 5.42%
11 | CS(=O)(=O)N1CCCC12CCCN(C(=O)c1cc(F)cc(F)c1)C2 (configuration not stated) | -11.7%
12 | CCn1nc(C(C)C)cc1C(=O)NCC1CCCN(c2ccccn2)C1 (configuration not stated) | -6.28%
13 | Cc1cnc(N2CCC3(CC2)CC(NC(=O)C(C)C)CO3)nc1 (configuration not stated) | 11.3%
14 | Cc1cccc(C(=O)NCCNCC2CNc3ccnn3C2)c1 (configuration not stated) | -1.43%
15 | O=C(c1cn(-c2cc(N3CCSCC3)ncn2)cn1)N1CCSCC1 | -1.64%
16 | COCc1cc(NCCc2ccccn2)n2nccc2n1 | 29%
17 | Cc1ccc(OCC(O)CN2CCc3c(ncn3C3CC3)C2)cc1 (configuration not stated) | -4.79%
18 | CCNC(=O)N1CC[C@H]2CC(=O)N(CCN3CCNC3=O)CC[C@H]2C1 | -3.51%
19 | COCCS(=O)(=O)Cc1nnnn1-c1ccccc1 | -2.53%

Row | SMILES | cytotoxicity at 70.5 h
20 | O=C(O)CCC(=O)N1CCC(c2noc3cc(F)ccc23)CC1 | -10.8%
21 | COc1cc2cc(C(=O)O)n(C)c2c(OC)c1OC | -10.1%
22 | CCOc1ncccc1C(=O)N1CCCC(c2nncn2C)C1 (configuration not stated) | -3.42%
23 | Cc1cc(C(=O)N2CCC(N3CCNC3=O)CC2)nn1C(C)(C)C | -16.5%
24 | NC(=O)NC(=O)CCN1CCCC1c1cccc2c1OCCO2 (configuration not stated) | -11.6%
25 | Cc1noc(C)c1CN1CCCC2(CCN(C(=O)C3CC3)C2)C1 (configuration not stated) | -11.8%
26 | Cc1ccc(CN(C)C)cc1NC(=O)C1CC=CC1 | -3.31%
27 | COCCc1noc(CN2CCCC(Cn3cncn3)C2)n1 (configuration not stated) | -7.84%
28 | Clc1cncc(N2CCN(Cc3ccon3)CC2)n1 | -3.48%
29 | Cc1ccc(C(=O)NCCNCC2CNc3ccnn3C2)cc1F (configuration not stated) | 1.33%
30 | CN1CCN(c2ccc(F)cc2C(N)=O)CC1 | -12.1%
31 | CCc1cc(C(=O)N2CCCC2c2nc(C)c(F)c(O)n2)on1 (configuration not stated) | 4.3%
32 | CCc1ncc2c(n1)CN(Cc1nnc(C)o1)CC2 | -8.24%
33 | CC(C)c1nccn1CCC(=O)N1CCCCC1c1ccn[nH]1 (configuration not stated) | 3.76%
34 | Cc1ccc(Cn2nc(C)c3c(C(=O)O)c(Cl)c(C)nc32)cc1 | -12.9%
35 | Cc1nc(CN2CCC3(CC2)CCN(C(=O)c2cscn2)C3)cs1 | -13.7%
36 | CC(=O)NCCNC(=O)Nc1ccc(Br)cc1C(C)C | 15.2%
37 | NCCn1cc(C(=O)NCc2ccccc2Cn2cccn2)nn1 | -6.05%
38 | CCS(=O)(=O)N1CCC2(CCC(N3CCCC3)c3ccccc32)CC1 (configuration not stated) | -10.6%

Row | SMILES | cytotoxicity at 70.5 h
39 | O=C(c1cccnc1-n1cncn1)N1CCN(c2ccccc2)CC1 | -8.14%
40 | CCn1nc(C(C)C)cc1C(=O)NCCCOC | -4.05%
41 | O=C(c1ccc2[nH]ccc2c1)N1CCCSCC1CN1CCCC1 (configuration not stated) | -2.63%
42 | CN1[C@@H](C(=O)NCC2CC2)C[C@@H]2CN(Cc3ccsc3)C[C@@H]21 | 11.3%
43 | COc1cccc(Cn2cc(N3C(=O)[C@H]4CCCC[C@H]4C3=O)cn2)c1 | 26.3%
44 | Cn1c(NC(=O)CNC(=O)C2CCCC2)nc2cc(Cl)ccc21 | -9.81%
45 | O=C1C(Nc2ccc3nccnc3n2)CCN1c1ccccc1 (configuration not stated) | -6.11%
46 | C[S+]([O-])c1ccc(CNc2ccc(F)cc2OC(F)F)cc1 (configuration not stated) | -0.988%
47 | CN(CCc1cnn(C)c1)C(=O)CN1C(=O)OC[C@@H]1c1ccccc1 | -5.22%
48 | c1coc(CN2CCc3onc(Cn4ccnc4)c3C2)c1 | -2.36%
49 | Cc1cc(C2CCC2)nc(N2CCC3(CCCNC3=O)C2)n1 (configuration not stated) | -18.8%
50 | CNC(=O)c1ccc(CN(C(=O)c2scnc2C)C2CC2)cc1 | 29.9%
51 | CN(Cc1cc(Br)cn1C)C(=O)c1cc(Cl)ccn1 | 30.9%
52 | CC(=O)N1CCCC(c2nccnc2Nc2nc(C)cc(C)n2)C1 (configuration not stated) | 13.3%
53 | Cn1ncc2c(N3CC(N4CCCCC4)C3)nc(C3CCCC3)nc21 | -4.55%
54 | CCS(=O)(=O)c1ccc(CNc2c(Cl)cccc2C#N)cc1 | -1.09%
55 | c1ccc(-n2ccc(CN3CCCC3Cn3cncn3)n2)cc1 (configuration not stated) | -3.62%
56 | CSc1ncccc1C(=O)N1CCCC1c1ccc(C(=O)N(C)C)s1 (configuration not stated) | -15.4%
57 | CC(NCCCC#N)c1ccc(S(C)(=O)=O)c(F)c1 (configuration not stated) | 9.59%
